Here are results for 3 compounds from publication PMC3530479, “Bestrophin-Encoded Ca^2+-Activated Cl^− Channels Underlie a Current with Properties Similar to the Native Current in the Moth Spodoptera littoralis Olfactory Receptor Neurons” (PLoS ONE, 2012).

This test addresses T1, SlitBest1b (Spodoptera littoralis, UniProt I6YK90).
T1 construct: full open reading frame without stop codon in pCINeo/IRES-GFP, expressed transiently in CHO-K1 cells
T1 sequence (I6YK90 1-707): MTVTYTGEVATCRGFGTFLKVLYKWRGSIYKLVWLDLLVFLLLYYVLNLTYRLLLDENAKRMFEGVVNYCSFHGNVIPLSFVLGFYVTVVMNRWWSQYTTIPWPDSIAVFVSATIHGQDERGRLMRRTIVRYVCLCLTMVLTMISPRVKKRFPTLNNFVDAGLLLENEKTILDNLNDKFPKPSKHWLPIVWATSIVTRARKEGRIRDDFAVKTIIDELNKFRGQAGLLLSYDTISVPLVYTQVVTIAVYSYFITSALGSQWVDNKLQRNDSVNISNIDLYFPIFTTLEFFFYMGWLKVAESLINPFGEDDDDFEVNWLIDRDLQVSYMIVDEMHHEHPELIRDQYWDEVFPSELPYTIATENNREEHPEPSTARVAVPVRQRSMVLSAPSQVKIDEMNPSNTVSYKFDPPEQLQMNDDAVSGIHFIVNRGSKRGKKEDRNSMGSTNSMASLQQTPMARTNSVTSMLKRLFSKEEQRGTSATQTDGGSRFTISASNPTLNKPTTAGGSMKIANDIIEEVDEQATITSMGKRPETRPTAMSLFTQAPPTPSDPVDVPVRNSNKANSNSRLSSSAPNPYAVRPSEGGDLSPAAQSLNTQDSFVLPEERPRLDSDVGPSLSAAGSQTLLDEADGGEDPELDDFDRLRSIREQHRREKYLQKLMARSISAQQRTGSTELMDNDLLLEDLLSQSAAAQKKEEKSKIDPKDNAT
Put plainly: whole-cell patch clamp, steady-state Ca2+-activated Cl- current in transfected CHO-K1 cells. It counts as cell-based. An excerpt: whole-cell patch clamp, steady-state Ca2+-activated Cl- current in transfected CHO-K1 cells on SlitBest1b
(In general: The patch-clamp technique gives a direct electrical read-out from membranes.)

Consider `O=C(O)c1cc([N+](=O)[O-])ccc1NCCCc1ccccc1` [NPPB, 5-nitro-2-(3-phenylpropylamino) benzoic acid], for which the inhibition at 100 µM is 101 ± 7.6%.

`O=C(O)c1ccccc1Nc1cccc(C(F)(F)F)c1` [flufenamic acid]: the inhibition at 100 µM was 78.7 ± 8.2%. In the case of `O=C(O)c1cccnc1Nc1cccc(C(F)(F)F)c1` [niflumic acid], the inhibition at 300 µM was found to be 65.1 ± 8.9%.

In general, inhibition refers to the relative decrease from the control value, in per cent.
